In patent publication US6166000A, “Methods for preparation and use of 1α,24(S)-Dihydroxy vitamin . D.sub2” (priority 1995, dated 2000):
Entries after “also recorded” stand apart in the source; their conditions may differ.

How the values were obtained:
bovine thymus VDR = target: T1, bovine thymus VDR (Bos taurus, UniProt Q28037); assay: Radioreceptor assay, displacement of 3H-1α,25-(OH)2 D3 tracer (Incstar kit); assay type: binding; conditions: in words
T1 construct: commercially available kit of bovine thymus VDR; purchased Incstar (Stillwater, Minn.); host or cells: bovine thymus
T1 sequence (Q28037 1-426): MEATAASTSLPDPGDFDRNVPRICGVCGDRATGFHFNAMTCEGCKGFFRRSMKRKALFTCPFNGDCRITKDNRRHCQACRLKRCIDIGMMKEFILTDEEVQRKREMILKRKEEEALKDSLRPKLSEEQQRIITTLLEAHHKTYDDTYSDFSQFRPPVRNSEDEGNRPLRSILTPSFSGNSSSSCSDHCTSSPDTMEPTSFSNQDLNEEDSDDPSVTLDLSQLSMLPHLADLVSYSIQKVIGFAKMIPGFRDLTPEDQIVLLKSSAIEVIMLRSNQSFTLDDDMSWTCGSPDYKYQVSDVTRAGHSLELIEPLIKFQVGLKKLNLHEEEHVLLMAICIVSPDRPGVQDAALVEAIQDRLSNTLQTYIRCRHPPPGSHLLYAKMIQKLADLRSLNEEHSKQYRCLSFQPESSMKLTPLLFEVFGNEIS
Description: Purified 1α,24(S)-(OH)2 D2 was quantitated by photodiode array spectrophotometry and assayed in the radioreceptor assay.
The purified 1α,24(R)-(OH)2 D2 and 1α,24(S)-(OH)2 D2 epimers were quantitated by ultraviolet spectroscopy. The concentration of 1α,24(R)-(OH)2 D2 required to produce the same displacement of ^3 H-1α,25-(OH)2 D3 tracer from the receptor was 20 to 30 times that required for 1α,24(S)-(OH)2 D2, as shown in FIG. 4.

Hep 3B cells = assay: Metabolite production in Hep 3B cells incubated with 1α-OH-D2; assay type: in vitro ADME, human; conditions: Experiment 2, photodiode array spectrophotometry
Method: Substantially pure 1α-(OH)D2 was obtained from Bone Care International, Inc. of Madison, Wis. The 1α-(OH)D2 was cultured for 48 hours with cells derived from a human hepatoma, Hep 3B, in medium devoid of fetal calf serum using known methods in the art.
Lipid extracts of the combined medium and cells were generated by known methods in the art and were subjected to high pressure liquid chromatography (HPLC) on Zorbax-S1L developed with hexane/isopropanol/methanol (91:7:2). The putative 1α,24(?)-(OH)2 D2 metabolite eluted between the parent 1α-(OH)D2 and standard 1α,25-(OH)2 D2 (also obtained from Bone Care International, Inc. of Madison, Wis.). (As used herein, the term "1α,24(?)-(OH)2 D2 " is meant to indicate that the epimeric form has not been identified.) The 1α,24(?)-(OH)2 D2 was further purified by this HPLC system before the metabolite's identification was undertaken using mass spectrometry analysis.
Hep 3B cells were incubated with 1α-OH-D2, as described above, at final concentrations of 1, 10, or 100 nM (Experiment 1), and 1 or 10 μM (Experiment 2) and 1α,24(S)-(OH)2 D2 was extracted and purified. The 1α,24(S)-(OH)2 D2 and 1α,25-(OH)2 D2 metabolites were quantitated by recovered radiolabel (Experiment 1) or by photodiode array spectrophotometry (Experiment 2).

[1] = Blood metabolite levels in osteoporotic women administered 1α-OH-D2; assay type: in vivo; conditions: one day after a single 2 μg dose of 1α-OH-D2; human females
Method: An increase in the production of 1α,24(S)-(OH)2 D2 relative to 1α,25-(OH)2 D2 has also been observed by the present inventors in human females who received 1α-OH-D2 as part of an investigation of that drug for the treatment of osteoporosis. Following either a single dose of 2 μg of 1α-OH-D2 or daily doses of 8 μg/day for one week, blood was collected and analyzed for the metabolites 1α,24(S)-(OH)2 D2 and 1α,25-(OH)2 D2. Lipid was extracted from the blood, and the metabolites were purified by HPLC using standard methods and quantified with the radioreceptor assay produced by Incstar (Stillwater, Minn.). One day after a single 2 μg dose, the level of 1α,24(S)-(OH)2 D2 was undetectable with the 1α,25-(OH)2 D2 level being approximately 11 pg/ml. In contrast, one day following the last dose of 8 μg, the level of 1α,24(S)-(OH)2 D2 averaged 9 pg/ml with the 1α,25-(OH)2 D2 level averaging 30 pg/ml.

[2] = test system: postmenopausal osteoporotic out-patients; assay: Preventive treatment of bone mass loss in postmenopausal osteoporotic women; assay type: in vivo, human; conditions: at or above 1.0 μg/day, 24 to 36 months
Method: A clinical study is conducted with postmenopausal osteoporotic out-patientshaving ages between 55 and 75 years. The study involves up to 120 patients randomly divided into three treatment groups and continues for 24 to 36 months. Two of the treatment groups receive constant dosages of 1α,24(S)-dihydroxy vitamin D2 (u.i.d.; two different dose levels at or above 1.0 μg/day) and the other group receives a matching placebo. All patients maintain a normal intake of dietary calcium (500 to 800 mg/day) and refrain from using calcium supplements. Efficacy is evaluated by pre-and post-treatment comparisons of the patient groups with regard to (a) total body calcium retention, and (b) radial and spinal bone mineral density as determined by dual-photon absorptiometry (DPA) or dual-energy x-ray absorptiometry (DEXA). Safety is evaluated by comparisons of urinary hydroxyproline excretion, serum and urine calcium levels, creatinine. clearance, blood urea nitrogen, and other routine determinations.

[3] = test system: men and women with renal disease undergoing chronic hemodialysis; assay: Management of hypocalcemia and metabolic bone disease in chronic hemodialysis patients; assay type: in vivo, human; conditions: greater than 3.0 μg/day, twelve months; double-isotope technique
Method: A twelve-month, double-blind, placebo-controlled clinical trial is conducted with thirty men and women with renal disease who are undergoing chronic hemodialysis. […] Efficacy is evaluated by pre- and post-treatment comparisons of the two patient groups with regard to (a) direct measurements of intestinal calcium absorption, (b) total body calcium retention, (c) radial and spinal bone mineral density, or (d) determinations of serum calcium. Safety is evaluated by regular monitoring of serum calcium.

With `C=C1/C(=C\C=C2/CCC[C@]3(C)[C@@H]([C@H](C)/C=C/[C@@](C)(O)C(C)C)CC[C@@H]23)C[C@@H](O)C[C@@H]1O` [1α,24(S)-(OH)2 D2, 1α,24(S)-dihydroxy Vitamin D2] the “affinity for VDR relative to 1α,25-(OH)2 D3” value (bovine thymus VDR) was “two-fold less competitive; also recorded: two-fold lower affinity”, the “Rate of Production” value (Hep 3B cells; substrate 1α-OH-D2 1 μM) was 4.9 pmol per 10^6 cells/day and the “Rate of Production” value (Hep 3B cells; substrate 1α-OH-D2 10 μM) was 59 pmol per 10^6 cells/day. For the same compound, the “blood level of metabolite” value [1] was “undetectable”, the “incidence of hypercalcemia or hypercalciuria, or any other metabolic disturbance” value [2] was “insignificant incidence” and the “total body calcium, and radial and spinal bone densities relative to placebo” value [2] was “significantly higher”. For the same compound, the intestinal calcium absorption [3] was “significantly increases”.
